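96-well plates; 48 h exposure; 5 concentrations. Endpoints by linear interpolation between flanking doses. Not reached: highest tested concentration assigned. Abbreviation: GI50, concentration required for 50% inhibition of growth.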 Activity calls are given as the source filed them. Rule as the data show it: active = GI50 up to about 1.1 µM and inactive = higher.
Columns and labels:
Test in all cases: inhibition of tumour cell growth, NCI panel, 48 h
BT-549 = tested on: BT-549
Malme-3M = tested on: Malme-3M
COLO 205 = tested on: COLO 205
SF-268 = tested on: SF-268
IGROV-1 = tested on: IGROV-1
NCI-H460 = tested on: NCI-H460
MDA-N = tested on: MDA-N
NCI-H23 = tested on: NCI-H23
A498 = tested on: A498
KM12 = tested on: KM12
ACHN = tested on: ACHN
UO-31 = tested on: UO-31
MCF7 = tested on: MCF7
RXF 393 = tested on: RXF 393
SR = tested on: SR
HL-60 = tested on: HL-60
MDA-MB-231 = tested on: MDA-MB-231
T47D = tested on: T47D
NCI-H226 = tested on: NCI-H226

Measured: GI50

NNC(=O)CC(=O)Nc1ccccc1Cl
inactive: BT-549 > 100 µM | Malme-3M > 100 µM | COLO 205 > 100 µM | SF-268 > 100 µM | IGROV-1 > 100 µM | NCI-H460 > 100 µM | MDA-N > 100 µM | NCI-H23 > 100 µM | A498 > 100 µM | KM12 > 100 µM | ACHN > 100 µM | UO-31 > 100 µM | MCF7 > 100 µM | RXF 393 > 100 µM | SR > 100 µM | HL-60 > 100 µM | MDA-MB-231 > 100 µM | T47D > 100 µM

CC1C(=O)N=C2C(=CN(Cc3ccccc3)c3ccccc32)C(=O)N1C (configuration not stated)
inactive: BT-549 > 100 µM | Malme-3M > 100 µM | COLO 205 > 100 µM | SF-268 > 100 µM | IGROV-1 > 100 µM | NCI-H460 > 100 µM | MDA-N > 100 µM | NCI-H23 > 100 µM | A498 > 100 µM | KM12 > 100 µM | ACHN > 100 µM | UO-31 > 100 µM | MCF7 > 100 µM | RXF 393 > 100 µM | SR 4.26 µM | MDA-MB-231 > 100 µM | T47D > 100 µM | NCI-H226 > 100 µM

OC(C1CO1)C(O)C1CO1 (configuration not stated)
inactive: BT-549 120 µM | Malme-3M 55.7 µM | COLO 205 87.7 µM | IGROV-1 68.1 µM | NCI-H460 3.33 µM | MDA-N 29.9 µM | NCI-H23 20.1 µM | A498 74 µM | KM12 87.9 µM | ACHN 4.04 µM | UO-31 48.5 µM | MCF7 11.7 µM | RXF 393 56.1 µM | SR 1.75 µM | HL-60 3.21 µM | MDA-MB-231 132 µM | T47D 17 µM

O=C(CCCCCCCCC(=O)NN1C(=O)/C(=C\c2ccc(O)c(O)c2)SC1c1ccc(Cl)cc1)NN1C(=O)/C(=C\c2ccc(O)c(O)c2)SC1c1ccc(Cl)cc1 (configuration not stated)
inactive: BT-549 > 47.3 µM | Malme-3M 23.7 µM | COLO 205 24.8 µM | SF-268 8.67 µM | IGROV-1 2.83 µM | NCI-H460 30.6 µM | MDA-N > 88.1 µM | NCI-H23 15.5 µM | A498 19.8 µM | KM12 23.8 µM | ACHN 18.3 µM | UO-31 5.35 µM | MCF7 38.8 µM | RXF 393 15.8 µM | SR 2.08 µM | MDA-MB-231 35.6 µM | T47D 31.9 µM | NCI-H226 59.3 µM

CC1(C2(C)OC(=O)c3ccccc32)OC(=O)c2ccccc21 (configuration not stated)
inactive: BT-549 > 100 µM | COLO 205 > 100 µM | SF-268 > 100 µM | IGROV-1 > 100 µM | NCI-H460 > 100 µM | MDA-N > 100 µM | NCI-H23 > 100 µM | A498 > 100 µM | KM12 > 100 µM | ACHN > 100 µM | UO-31 > 100 µM | MCF7 > 100 µM | RXF 393 > 100 µM | SR > 100 µM | HL-60 > 100 µM | MDA-MB-231 > 100 µM | T47D > 100 µM | NCI-H226 > 100 µM

CCOC(=O)CC[C@H](NC(=O)c1ccc(CNc2nc3cc(C(F)(F)F)ccc3nc2C(=O)OCC)cc1)C(=O)OCC
inactive: BT-549 18.1 µM | Malme-3M 18.8 µM | COLO 205 > 100 µM | SF-268 12.4 µM | IGROV-1 21 µM | NCI-H460 15.5 µM | MDA-N > 100 µM | NCI-H23 26.1 µM | A498 > 100 µM | KM12 52.2 µM | ACHN 33.8 µM | UO-31 25.2 µM | MCF7 19 µM | RXF 393 27.7 µM | SR > 100 µM | HL-60 > 100 µM | MDA-MB-231 13.3 µM | T47D 18.1 µM

Source: ChEMBL document CHEMBL1201862, “PubChem BioAssay data set” (2004)
